This is an account of results in PMC10253591, “A Non-Systemic Phosphodiesterase-5 Inhibitor Suppresses Colon Proliferation in Mice” (International Journal of Molecular Sciences, 2023).

For series [1], the system named is mice. Briefly: Arterial blood pressure by telemetry, interaction with isosorbide mononitrate. Type of series: in vivo. To be noted: ISMN 300 mg/kg i.p. alone (oral vehicle), baseline around 100 mmHg. The method, then:
Male C57BL/6J mice (n = 4) were implanted with a PA-C10 blood pressure transmitter in the right carotid artery (Data Sciences International, St. Paul, MN, USA), and after recovery from surgery, the data was recorded using the DSI PhysioTel system (Data Sciences International, St. Paul, MN, USA). For each experiment, the mice were randomly selected for treatment with ISMN mixed in diH20, and 0.1 mL was injected i.p. for a final dose of 300 mg/kg. […] The experiment was repeated until each treatment had been reproduced in 5 independent biological trials after which mice were euthanized.
The surgical procedures and implantable telemetry approach for measuring blood pressure in mice have been described in detail previously. In brief, all surgical instruments were autoclaved on a stainless-steel tray that was used as the sterile surface during surgery. The mouse is anesthetized in an isoflurane-inducing chamber. Anesthesia used a fitted nose cone connected to an isoflurane system running 2% in a stream of 100% oxygen mixed with room air. The incision area was shaved and prepped with betadine and rinsed with 70% ethanol. Anesthesia was assessed continuously during shaving and prepping for surgery, with appropriate adjustments. An approximately 10 mm incision was made in the ventral neck region over the trachea to expose the […]. […]

Another series deals with T1, human PDE5a (Homo sapiens, UniProt O76074).
T1 construct: purchased BPS Bioscience
In words: In vitro assay for PDE5 inhibitory activity (commercial kit). Type of series: biochemical. Conditions: mean of n = 3.

The test system of series [2] is LS-174T colon cancer cells. In words: Cell-based permeability assay: cellular cGMP (ELISA) in linaclotide-treated cells. To be noted: LS-174T cells; for EC50: Homo sapiens, LS174T, 1 µM linaclotide, 4 h, cGMP ELISA, read-out: EC50 for increasing cellular cGMP levels. The method, then: The cell-based permeability assays were performed using LS-174T colon cancer cells obtained from the American Type Culture Collection. Cells were treated with 1 µM linaclotide together with different PDE5i concentrations for 4 h, followed by processing of cell extracts for cellular cGMP measurement using cGMP ELISA kits according to the manufacturer instructions (Cayman Chemical, Ann Arbor, MI, USA). The calculated EC50 values are the concentration of compound required to increase cellular cGMP levels by 50% of maximum based on predictions determined by curve fitting in GraphPad Prism 9 (San Diego, CA, USA). To assess activation of cGMP signaling by immunoblotting, we used LS174T cells with inducible PKG2 expression that were described recently.
A general note: In an ELISA, binding on a coated surface is turned into a signal by an enzyme label.

The subject of series [3] is mice. In words: Tolerability and plasma level with compound in drinking water for up to 8 days. Type of series: in vivo.
A further series concerns colon epithelium. Briefly: Cell proliferation in the colon epithelium (Ki67 flow cytometry, PCNA IHC). To be noted: mice, 9 mg/kg in drinking water; for Ki67+ cells, median: 8 days, proximal colon epithelium, flow cytometry, control 23%; for reduction of number of PCNA+ cells/crypt: distal colon, IHC. Type of series: in vivo. The source says: Mice were weighed daily, and after at least 5 days of continuous consumption they were sacrificed, and the colon was dissected and processed for quantitation of proliferation by flow cytometry (proximal region) and by IHC (distal region). For flow cytometry, the epithelium was enriched by isolating crypts as described previously, followed by ethanol fixation and staining with phycoerythrin-conjugated anti-mouse Ki-67 antibodies according to the manufacturer instructions (Biolegend, San Diego, CA, USA). Flow cytometry was carried out using a BD Accuri C6 flow cytometer, and data were analyzed using FCS Express 7 software (De Novo Software, Pasadena, CA, USA). Processing the distal colon tissues for histology and immunohistochemistry was carried out as previously described. Briefly, tissues were fixed with 10% formaldehyde, embedded in paraffin blocks, and sectioned by the Augusta University histology core. The tissues were probed using antibodies to PCNA (1:100; Cell Signaling, Danvers, MA, USA). Visualization of PCNA antibodies was carried out using the ImmunoCruz ABC kit (Santa Cruz Biotechnology, Dallas, TX, USA). At least 10 different regions of the colon containing approximately 8 crypts per region were counted for each mouse.
Background: In flow cytometry, cells or beads pass a laser one at a time.

Series [4] in a line: LC-MS/MS measurement of compound in plasma and feces after oral gavage. Conditions: mice; for level in feces: feces collected between 2–4 h.
Series [5] in a line: Tolerability and plasma level with compound in drinking water for up to 8 days. Type of series: in vivo. Conditions: male, mouse, plasma, oral, 9 mg/kg daily; mice, in drinking water for 8 days.
For series [6] the following is noted: both, mouse, in vivo, po.
A short description of another series: in vivo. Conditions: both, mouse, po.
[7] abbreviates: 9 mg/kg in drinking water, up to 8 days.

Turning to `O=[N+]([O-])O[C@@H]1CO[C@H]2[C@@H]1OC[C@@H]2O` [ISMN, isosorbide mononitrate], in the series with mice [1], the “arterial blood pressure after drug” value turned out to be 126 mmHg.

By IC50 is commonly meant the concentration that gives 50% inhibition. As usually defined, the EC50 is the concentration needed to bring the measured effect to its halfway point. Regarding `CCCc1nn(C)c2c(=O)[nH]c(-c3cc(S(=O)(=O)N4CCN(C(=O)CC(=O)O)CC4)ccc3OCC)nc12` [malonyl-sildenafil], at human PDE5a, the IC50 worked out at 6.5 nM. Also, the EC50 in series [2] turned out to be 12100 nM. Also, the “fold less potent than parent compound at increasing cGMP levels, based upon EC50” value in series [2] (versus sildenafil) was 18 fold. Moreover, the “body weight compared to sildenafil or water alone” value in the series with mice [3] (setting [7]) is recorded as “no difference”. The observed deleterious effects entry in the series on mice [3] (setting [7]) is “no observed deleterious effects”. Besides, the “histological analysis of the colon mucosa” value in the series on mice [3] (8 days in drinking water, H&E) was “no obvious epithelial damage, edema or leukocyte infiltration”. Also, the level in plasma result with mice [3] (in drinking water for 8 days) is listed as “not detected”; in series [4] (oral, doses up to 36 mg/kg, 1 h after administration) it was “did not result in detectable levels”. Moreover, the “Ki67+ cells, median” value in the series with colon epithelium came out at 7%. Besides, in the series on colon epithelium, the “reduction of number of PCNA+ cells/crypt” value was “about 30%”. In addition, the level in feces in series [4] (oral 9 mg/kg) came to 90 µg/g; in series [4] (oral 36 mg/kg) it was 244 µg/g. Besides, the excretion in feces result in [4] (single oral 9 mg/kg, 8 h after administration) was “continued to be excreted at high levels”. Also, the “level in plasma at other times of time course” value in [4] (single oral 9 mg/kg, any time other than 1 h during 24 h) is recorded as “not detected”. In addition, in series [4] (single oral 9 mg/kg, at 1 h), the “plasma peak in time course” value is on record as 11 nM.

`CCCc1nn(C)c2c(=O)[nH]c(-c3cc(S(=O)(=O)N4CCN(C)CC4)ccc3OCC)nc12` [sildenafil, reference compound]: in series [2], the EC50 was found to be 670 nM. The concentration at 8 days in series [5] was found to be 3.3 nM. Moreover, in the series on colon epithelium, the “Ki67+ cells, median” value stood at 11%. Moreover, in the series on colon epithelium, the “reduction of number of PCNA+ cells/crypt” value is recorded as “about 30%”. Also, the “time of peak in plasma” value in series [6] is 1 to 2 h. Moreover, the concentration at 1 h in the series “in vivo” (9 mg/kg) stood at 250 nM; in the series “in vivo” (36 mg/kg), 3500 nM.
